# Read-outs that look alike come from different tables or passages of the source.
# Legend:
# [1] = system: E. coli TG1 + pBGS18 + DHA-1; assay: MIC broth microdilution, ceftazidime with or without inhibitor; assay type: cell-based, Escherichia coli; conditions: for MIC of ceftazidime in the presence of inhibitor: DHA-1 (Class C, ESBL), inhibitor concentration 16 μg mL^–1; for MIC: Escherichia coli
# [2] = system: E. coli TG1 + pBGS18 + FOX-4; assay: as above; assay type: cell-based, Escherichia coli; conditions: for MIC of ceftazidime in the presence of inhibitor: FOX-4 (Class C, ESBL), inhibitor concentration 16 μg mL^–1; for MIC: Escherichia coli
# [3] = system: K. pneumoniae ΔompK35/36+ pBGS18+ OXA-48; assay: MIC broth microdilution, imipenem with or without inhibitor; assay type: cell-based, Klebsiella pneumoniae; conditions: for MIC of imipenem in the presence of inhibitor: OXA-48 (Class D, carbapenemase), inhibitor concentration 16 μg mL^–1; for MIC: Klebsiella pneumoniae
# [4] = system: E. coli MG1655 + pBGS18 + CTX-M-2; assay: MIC broth microdilution, ceftazidime with or without inhibitor; assay type: cell-based, Escherichia coli; conditions: for MIC of ceftazidime in the presence of inhibitor: CTX-M-2 (ESBL), inhibitor concentration 16 μg mL^–1
# [5] = system: E. coli TG1 + pBGS18 + CMY-2; assay: as above; assay type: cell-based, Escherichia coli; conditions: for MIC of ceftazidime in the presence of inhibitor: CMY-2 (Class C, ESBL), inhibitor concentration 16 μg mL^–1; for MIC: Escherichia coli
# [6] = system: E. coli MG1655 + pBGS18 + CTX-M-14; assay: MIC broth microdilution, ampicillin with or without inhibitor; assay type: cell-based, Escherichia coli; conditions: CTX-M-14 (Class A, ESBL); inhibitor concentration 16 μg mL^–1; 20 h, 37 °C
# [7] = system: P. aeruginosa PAO ΔampD (PDC-1); assay: MIC broth microdilution, ceftazidime with or without inhibitor; assay type: cell-based; conditions: Pseudomonas aeruginosa
# [8] = read-out: MIC of ceftazidime without an inhibitor
# [9] = read-out: MIC of ceftazidime, strain without β-lactamase
Compound,MIC of ceftazidime in the presence of inhibitor [1] [μg mL^–1],MIC of ceftazidime in the presence of inhibitor [2] [μg mL^–1],MIC of imipenem in the presence of inhibitor [3] [μg mL^–1],MIC of ceftazidime in the presence of inhibitor [4] [μg mL^–1],MIC of ceftazidime in the presence of inhibitor [5] [μg mL^–1],MIC of ampicillin in the presence of inhibitor [6] [μg mL^–1],also measured
CC1(C)[C@H](C(=O)[O-])N2C(=O)/C(=C/c3cc(CCCOC(=O)Cc4ccc(O)c(O)c4)ccn3)[C@H]2S1(=O)=O.[Na+] [Compound 8],8,8,32,256,4,1024,–
"C[C@@H](O)[C@H]1C(=O)N2C(C(=O)O)=C(SCCN=CN)C[C@H]12 [IP, imipenem, reference compound]",–,–,–,–,–,–,"MIC ([3]; read-out: MIC of imipenem without an inhibitor): 64 µg/mL; MIC ([3]; read-out: MIC of imipenem, strain without β-lactamase): 0.5 µg/mL"
"CC(C)(O/N=C(\C(=O)N[C@@H]1C(=O)N2C(C(=O)[O-])=C(C[n+]3ccccc3)CS[C@H]12)c1csc(N)n1)C(=O)O [CAZ, ceftazidime, reference compound]",–,–,–,–,–,–,"MIC [1, 8]: 32 µg/mL; MIC [1, 9]: ≤ 0.06 µg/mL; MIC [2, 8]: > 64 µg/mL; MIC [2, 9]: ≤ 0.06 µg/mL; MIC [7, 8]: 8 µg/mL; MIC [7, 9]: 1 µg/mL; MIC ([4]; Escherichia coli, MG1655, read-out: MIC of ceftazidime without an inhibitor): 1020 µg/mL; MIC [5, 8]: 16 µg/mL; MIC [5, 9]: ≤ 0.06 µg/mL"
C[C@]1(COC(=O)c2cc(Cl)ccc2O)[C@H](C(=O)[O-])N2C(=O)/C(=C/c3ccccn3)[C@H]2S1(=O)=O.[Na+] [Compound 5],0.12,16,16,64,–,512,–
C[C@]1(COC(=O)CCc2ccc(O)c(O)c2)[C@H](C(=O)[O-])N2C(=O)/C(=C/c3ccccn3)[C@H]2S1(=O)=O.[Na+] [Compound 3],≤0.06,0.12,16,2,≤0.06,32,–
C[C@]1(COC(=O)c2ccncc2O)[C@H](C(=O)[O-])N2C(=O)/C(=C/c3ccccn3)[C@H]2S1(=O)=O.[Na+] [Compound 7],4,0.12,16,256,1,1024,–

# — article PMC11191083 (ACS Omega, 2024)
